{"source": "patent US8956622B2", "about": "“Peptidic antagonists of class III semaphorins/neuropilins complexes” (INSERM—Institut National de la Sante et de la Recherche …, priority 2005, dated 2015)", "key": {"[1]": {"system": "cortical axons collapses triggered by Sema3A", "test": "Cortical axons collapses triggered by Sema3A in neocortex explants", "type": "cell-based, mouse", "settings": "Sema3A 100 ng/ml, peptide 10^−8 to 10^−11 M, 2 h, read-out: IC50, inhibition of cortical axons collapses induced by Sema3A", "experimental": "The inhibitory axon growth property of Sema 3A is supposed to be linked to its induction capacity of growth cone collapses. To investigate the effect of the pTM-NRP1 peptide on the Sema 3A functional properties, the growth of cortical neurons was analyzed in the presence or not of Sema 3A and of pTM-NRP1 or pTM-NRP1^mut (NRP1 TM with a triple G→V mutation) peptides.\nLaminine/Poly-L-Lysine substrates have been made by adding 980 μL of Gey's balanced salt solution (GBSS, SIGMA) to 10 μL laminine (1 mg/ml, SIGMA) and to 10 μL poly-L-Lysine (10 mg/ml, SIGMA). Sterile coverslips have been placed in a big dish and added with substrate (100 μL). Then, ‘sandwiches’ have been prepared by covering each coverslip with a second one. After an incubation for at least 30 min at 37° C. under 5% CO2 in air, ‘sandwiches’ have been opened and each coverslip has been rinsed with deionized water. Explants have been cultured on dried coverslips.\nNeocortex fragments prepared from E15 mouse embryos (E1 determined as the first day of embryonic development by detection of vaginal plug) have been transferred on a tissue chopper disk. Tissue have been cut into 200×200 μm by rotating the disk by 90° after the first cut. Cortex cubes have been collected with a spatula and put into culture medium in a Petri dish. Two coverslips with substrate have been placed in a small Petri dish (50 mm diameter, FALCON). After adding 750 μl of culture medium, the coverslips should stay in the incubator for at least 10 minutes. Using a dissecting microscope, forty to fifty cortical explants have been collected in 20 μl culture medium and carefully placed onto the coverslips. After 15 min at room temperature, most explants have adhered to their substrate. 2250 μl of culture medium have been slowly added to each dish. Then, explants cultures have been kept at 37° C. under 5% CO2 in air.\nA radial outgrowth could be seen after 18-24 h in culture, and individual fibres and growth cones could have therefore been analyzed. Products tested on growth cones have been directly added in culture medium for 2 h: • purified Sema3A (100 ng/ml) prepared from conditioned medium of HEK293 cells stably expressing Sema3A. The purification was performed by using the anti-Flag system, SIGMA) • pTM-NRP1 (10^−8, 10^−9, 10^−10 and 10^−11 M), • 10^−8M mpTM-NRP1, • 10^−8M pTM-ErbB2w (SEQ ID NO. 18).\nAfter incubation, 4% formaldehyde has been directly added in culture medium (v/v) for 15min. Then the solution has been removed and replaced by 4% formaldehyde for 15 min."}, "NRP1 receptor complex": {"target": "T1, NRP1 receptor complex (Rattus norvegicus, UniProt Q9QWJ9)", "T1 construct": "C6 cells expressing NRP1 and Plexin-A1 were incubated or not with the pTM-NRP1 peptide; endogenous in cells; host or cells: rat C6 glioma cells", "test": "Formation of NRP1 receptor complexes, sucrose density gradient sedimentation and western blot", "type": "cell-based", "settings": "C6 cells expressing NRP1 and Plexin-A1, peptide 10^−9 M for 1 h", "experimental": "To further investigate the role of the transmembrane domain of the NRP1 receptor in the formation of the NRP1 receptor complex, the formation of NRP1 complexes has been determined on C6 cells expressing NRP1 and plexin-A1 in the presence or not of the transmembrane domain peptide of NRP1 (pTM-NRP1 peptide) and of the ligand Sema3A.\nC6 cells expressing NRP1 and Plexin-A1 were incubated or not with the pTM-NRP1 peptide (10^−9 M) for 1 h. The culture medium has been then replaced of HER cells stably transfected or not with a construction expressing Sema 3A. Confluent C6 have been harvested with 10 mM EDTA and centrifuged. The pellet has been washed in PBS and then diluted in lysis buffer (Tris-HCL/NaCl; 50/150; pH 8.0) with 0.1% SDS, 1 mM EDTA, 1% NP-40, 0.5% DOC, 2 mM vanadate and proteases inhibitors without SDS (PIERCE). After solubilization for 1 h at 4° C., protein amount is estimated by bicinchoninic acid method (BCA Protein Assay, PIERCE).\nSucrose density gradient sedimentation experiments were based on a step gradient containing 25%, 17%, 10% and 3% sucrose. […]\nThe membrane has been then incubated 2 hours with polyclonal anti-NRP1 at a 1:1000 dilution (ONCOGENE). […] Immunoreactivity has been then detected with an enhanced chemoluminescence western blot detection system (PIERCE) according to the manufacturer's instructions. […]"}}, "note": "pIC50: −log10 of the molar value. Read-outs that look alike come from different tables or passages of the source.", "data": [{"sequence": "ILITIIAMSALGVLLGAVCGVVL [pTM-NRP1]", "values": [{"measurement": "pIC50", "setting": "[1]; listed as peptide corresponding to the transmembrane domain of NRP1", "result": "> 11.00"}, {"measurement": "pIC50", "setting": "[1]", "result": "~11.00"}, {"measurement": "oligomerization of NRP1 in the presence of Sema 3A", "setting": "NRP1 receptor complex", "result": "inhibited"}]}]}
